The test system of one experiment is Prunus dulcis. Kind of experiment: Inhibition of almond beta-glucosidase assessed as release of p-nitrophenol at 1000 uM using p-nitrophenyl glycoside as substrate by spectrometric assay relative to control.
For experiment [1], the target named is T1, Tissue alpha-L-fucosidase (Bos taurus) (UniProt Q2KIM0).
T1 sequence (whole entry): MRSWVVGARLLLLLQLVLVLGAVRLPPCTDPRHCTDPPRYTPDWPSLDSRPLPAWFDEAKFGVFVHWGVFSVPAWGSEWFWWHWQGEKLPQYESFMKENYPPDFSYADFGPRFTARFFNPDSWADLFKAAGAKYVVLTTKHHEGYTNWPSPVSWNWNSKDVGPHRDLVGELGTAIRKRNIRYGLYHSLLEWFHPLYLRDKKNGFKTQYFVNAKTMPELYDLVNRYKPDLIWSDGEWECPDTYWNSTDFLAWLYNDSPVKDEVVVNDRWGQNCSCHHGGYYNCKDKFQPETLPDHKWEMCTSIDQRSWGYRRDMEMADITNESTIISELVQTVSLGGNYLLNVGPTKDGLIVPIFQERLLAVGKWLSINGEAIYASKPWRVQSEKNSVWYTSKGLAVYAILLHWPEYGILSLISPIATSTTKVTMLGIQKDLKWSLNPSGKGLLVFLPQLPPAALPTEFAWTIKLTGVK
As to the kind of experiment: Inhibition of bovine kidney alpha-L-fucosidase assessed as release of p-nitrophenol at 1000 uM using p-nitrophenyl glycoside as substrate by spectrometric assay relative to control.

The nature of experiment [2]: Inhibition of yeast alpha-glucosidase assessed as release of p-nitrophenol using p-nitrophenyl glycoside as substrate by spectrometric assay. Set-up: species or system Saccharomyces cerevisiae.
The subject of the next experiment is Aspergillus niger. As to the kind of experiment: Inhibition of Aspergillus niger amyloglucosidase assessed as release of p-nitrophenol at 1000 uM using p-nitrophenyl glycoside as substrate by spectrometric assay relative to control.
Experiment [3] has as its target Sucrase-isomaltase, intestinal (Rattus norvegicus, UniProt P23739). Kind of experiment: Inhibition of rat intestinal sucrase assessed as release of p-nitrophenol using p-nitrophenyl glycoside as substrate by spectrometric assay.
Experiment [4] deals with Alpha-galactosidase (Coffea arabica) (UniProt Q42656). As to the kind of experiment: Inhibition of coffee beans alpha-galactosidase assessed as release of p-nitrophenol at 1000 uM using p-nitrophenyl glycoside as substrate by spectrometric assay relative to control.
The test system of the next experiment is Helix pomatia. As to the kind of experiment: Inhibition of snail beta-mannosidase assessed as release of p-nitrophenol at 1000 uM using p-nitrophenyl glycoside as substrate by spectrometric assay relative control.
The species named for experiment [5] is Bos taurus. Kind of experiment: Inhibition of bovine liver beta-galactosidase assessed as release of p-nitrophenol at 1000 uM using p-nitrophenyl glycoside as substrate by spectrometric assay relative to control.
Experiment [6] deals with T2, Lysosomal alpha-glucosidase (Homo sapiens, UniProt P10253). As to the kind of experiment: Inhibition of human lysosomal alpha glucosidase assessed as release of p-nitrophenol using p-nitrophenyl glycoside as substrate by spectrometric assay.
For a further experiment, the species on record is Rattus norvegicus. As to the kind of experiment: Inhibition of rat intestinal alpha-trehalase assessed as release of p-nitrophenol at 1000 uM using p-nitrophenyl glycoside as substrate by spectrometric assay relative to control.
Experiment [7] in a line: Inhibition of rice alpha-glucosidase assessed as release of p-nitrophenol using p-nitrophenyl glycoside as substrate by spectrometric assay. Set-up: species or system Oryza sativa.
The next experiment has as its system Escherichia coli. As to the kind of experiment: Inhibition of Escherichia coli beta-glucuronidase assessed as release of p-nitrophenol at 1000 uM using p-nitrophenyl glycoside as substrate by spectrometric assay relative to control.
The next experiment deals with Penicillium decumbens. As to the kind of experiment: Inhibition of Penicillium decumbens alpha-L-rhamnosidase assessed as release of p-nitrophenol at 1000 uM using p-nitrophenyl glycoside as substrate by spectrometric assay relative to control.
For experiment [8], the species on record is Bos taurus. Kind of experiment: Inhibition of bovine liver beta-glucosidase assessed as release of p-nitrophenol at 1000 uM using p-nitrophenyl glycoside as substrate by spectrometric assay relative to control.
The species named for experiment [9] is Bos taurus. Kind of experiment: Inhibition of bovine liver beta-glucronidase assessed as release of p-nitrophenol at 1000 uM using p-nitrophenyl glycoside as substrate by spectrometric assay relative to control.
The target of experiment [10] is T3, Alpha-mannosidase (Canavalia ensiformis) (UniProt C0HJB3).
T3 sequence (whole entry): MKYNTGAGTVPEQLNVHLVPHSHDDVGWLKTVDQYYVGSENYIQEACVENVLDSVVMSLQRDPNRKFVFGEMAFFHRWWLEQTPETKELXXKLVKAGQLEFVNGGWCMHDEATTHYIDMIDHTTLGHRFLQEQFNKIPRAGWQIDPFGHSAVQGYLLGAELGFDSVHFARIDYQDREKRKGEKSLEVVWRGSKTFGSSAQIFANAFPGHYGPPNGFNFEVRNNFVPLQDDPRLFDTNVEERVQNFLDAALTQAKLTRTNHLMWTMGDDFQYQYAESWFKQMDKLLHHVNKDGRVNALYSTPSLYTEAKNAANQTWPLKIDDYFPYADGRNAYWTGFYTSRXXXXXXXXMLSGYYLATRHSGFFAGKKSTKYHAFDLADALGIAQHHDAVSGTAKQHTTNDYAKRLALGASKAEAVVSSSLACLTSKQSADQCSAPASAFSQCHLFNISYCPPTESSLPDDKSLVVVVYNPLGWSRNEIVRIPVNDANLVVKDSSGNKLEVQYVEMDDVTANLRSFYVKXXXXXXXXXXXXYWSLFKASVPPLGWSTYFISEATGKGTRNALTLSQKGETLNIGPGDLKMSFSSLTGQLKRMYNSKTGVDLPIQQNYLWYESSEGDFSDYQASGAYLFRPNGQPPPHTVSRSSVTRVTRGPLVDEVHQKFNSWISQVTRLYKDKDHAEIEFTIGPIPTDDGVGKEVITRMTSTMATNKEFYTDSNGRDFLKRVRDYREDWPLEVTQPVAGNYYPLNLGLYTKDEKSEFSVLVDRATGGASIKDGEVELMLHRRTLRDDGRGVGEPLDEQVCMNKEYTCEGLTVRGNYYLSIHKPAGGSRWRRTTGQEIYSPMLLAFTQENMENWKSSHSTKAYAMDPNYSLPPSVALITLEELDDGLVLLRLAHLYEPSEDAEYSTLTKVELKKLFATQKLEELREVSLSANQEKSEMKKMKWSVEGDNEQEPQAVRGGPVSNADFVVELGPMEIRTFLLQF
As to the kind of experiment: Inhibition of jack bean alpha-mannosidase assessed as release of p-nitrophenol at 1000 uM using p-nitrophenyl glycoside as substrate by spectrometric assay relative to control.

The species entered for a further experiment is Sus scrofa. As to the kind of experiment: Inhibition of porcine kidney alpha-trehalase assessed as release of p-nitrophenol at 1000 uM using p-nitrophenyl glycoside as substrate by spectrometric assay relative to control.
Another experiment has as its system Saccharomyces cerevisiae. Kind of experiment: Inhibition of yeast alpha-glucosidase assessed as release of p-nitrophenol at 1000 uM using p-nitrophenyl glycoside as substrate by spectrometric assay relative to control.
The target of experiment [11] is T2, Lysosomal alpha-glucosidase. As to the kind of experiment: Inhibition of human lysosomal alpha glucosidase assessed as release of p-nitrophenol at 1000 uM using p-nitrophenyl glycoside as substrate by spectrometric assay relative to control.
The next experiment concerns Oryza sativa. As to the kind of experiment: Inhibition of rice alpha-glucosidase assessed as release of p-nitrophenol at 1000 uM using p-nitrophenyl glycoside as substrate by spectrometric assay relative to control.

Molecules are shown by their SMILES. pIC50: −log10 of the molar value.

Chain of Sucrase-isomaltase, intestinal (P23739 1-1013 limits assumed): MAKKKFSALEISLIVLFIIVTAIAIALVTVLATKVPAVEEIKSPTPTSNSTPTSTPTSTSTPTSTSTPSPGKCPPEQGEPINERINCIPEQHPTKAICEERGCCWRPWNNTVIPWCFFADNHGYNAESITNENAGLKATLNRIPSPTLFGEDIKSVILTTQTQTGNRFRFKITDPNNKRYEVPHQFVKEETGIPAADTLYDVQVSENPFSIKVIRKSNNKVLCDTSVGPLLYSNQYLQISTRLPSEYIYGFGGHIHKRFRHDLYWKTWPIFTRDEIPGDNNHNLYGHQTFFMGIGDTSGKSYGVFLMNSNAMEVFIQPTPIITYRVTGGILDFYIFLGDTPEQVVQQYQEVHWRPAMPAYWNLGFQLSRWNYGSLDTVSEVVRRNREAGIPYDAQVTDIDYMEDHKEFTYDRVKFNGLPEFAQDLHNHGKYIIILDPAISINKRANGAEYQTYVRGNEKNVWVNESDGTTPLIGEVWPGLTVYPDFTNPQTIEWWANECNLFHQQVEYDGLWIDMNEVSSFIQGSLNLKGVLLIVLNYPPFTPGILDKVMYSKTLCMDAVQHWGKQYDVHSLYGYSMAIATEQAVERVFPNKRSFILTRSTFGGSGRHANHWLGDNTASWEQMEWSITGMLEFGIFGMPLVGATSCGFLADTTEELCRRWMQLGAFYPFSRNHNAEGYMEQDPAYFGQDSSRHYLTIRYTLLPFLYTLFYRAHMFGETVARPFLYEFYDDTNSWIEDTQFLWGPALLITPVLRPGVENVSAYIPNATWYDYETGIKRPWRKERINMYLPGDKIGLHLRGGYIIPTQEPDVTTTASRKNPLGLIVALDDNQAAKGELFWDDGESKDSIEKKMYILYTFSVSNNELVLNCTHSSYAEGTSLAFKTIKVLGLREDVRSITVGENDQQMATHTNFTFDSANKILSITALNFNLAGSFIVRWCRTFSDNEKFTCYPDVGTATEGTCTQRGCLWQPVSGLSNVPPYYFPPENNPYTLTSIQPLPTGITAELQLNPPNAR
Chain of Sucrase-isomaltase, intestinal (P23739 1014-1841 limits assumed): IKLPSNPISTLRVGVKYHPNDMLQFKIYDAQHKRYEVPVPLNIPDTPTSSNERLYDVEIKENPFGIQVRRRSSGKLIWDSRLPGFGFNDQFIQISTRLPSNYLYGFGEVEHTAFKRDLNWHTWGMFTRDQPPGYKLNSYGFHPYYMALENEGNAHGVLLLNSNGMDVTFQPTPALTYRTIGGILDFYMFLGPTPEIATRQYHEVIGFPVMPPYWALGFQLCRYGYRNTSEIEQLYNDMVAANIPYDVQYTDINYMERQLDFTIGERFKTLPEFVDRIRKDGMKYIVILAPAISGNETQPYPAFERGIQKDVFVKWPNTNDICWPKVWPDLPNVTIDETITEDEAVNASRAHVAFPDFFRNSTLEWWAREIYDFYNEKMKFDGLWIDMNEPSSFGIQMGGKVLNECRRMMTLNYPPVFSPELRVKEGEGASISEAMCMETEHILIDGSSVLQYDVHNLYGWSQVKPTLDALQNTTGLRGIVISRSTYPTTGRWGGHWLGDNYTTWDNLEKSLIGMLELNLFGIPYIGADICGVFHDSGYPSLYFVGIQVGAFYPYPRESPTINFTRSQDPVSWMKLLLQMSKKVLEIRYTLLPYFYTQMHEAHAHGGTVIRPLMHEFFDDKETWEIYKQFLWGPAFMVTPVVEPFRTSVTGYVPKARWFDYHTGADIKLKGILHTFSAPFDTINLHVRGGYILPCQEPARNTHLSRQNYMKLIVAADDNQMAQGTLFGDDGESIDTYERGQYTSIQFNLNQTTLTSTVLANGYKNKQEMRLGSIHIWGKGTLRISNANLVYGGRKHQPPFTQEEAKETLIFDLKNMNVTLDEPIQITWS
Chain of Alpha-galactosidase (Coffea arabica) (Q42656 16-378 limits assumed): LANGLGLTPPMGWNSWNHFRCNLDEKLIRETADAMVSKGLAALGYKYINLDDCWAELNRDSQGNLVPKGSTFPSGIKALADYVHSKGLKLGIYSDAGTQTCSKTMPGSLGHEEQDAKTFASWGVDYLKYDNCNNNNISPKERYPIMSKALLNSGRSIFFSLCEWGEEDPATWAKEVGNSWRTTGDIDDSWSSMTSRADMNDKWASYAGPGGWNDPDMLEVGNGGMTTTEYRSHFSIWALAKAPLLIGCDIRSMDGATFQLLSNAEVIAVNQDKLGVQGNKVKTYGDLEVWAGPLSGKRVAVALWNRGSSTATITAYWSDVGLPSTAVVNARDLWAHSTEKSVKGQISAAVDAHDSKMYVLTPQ

The term inhibition denotes the share of the control response that was lost under treatment. For orientation: pIC50 means −log10 of the IC50, conventionally taken in molar units. Turning to `COc1cccc([C@]2(CO)NC[C@@H](O)[C@@H]2O)c1`, the inhibition in the experiment on Prunus dulcis is 7.8%; in [1], 0%; in the experiment with Aspergillus niger it was 8.3%; in [4] it was 1.6%; in the experiment on Helix pomatia, 0%; in the experiment filed under Bos taurus [5], 38.9%. Besides, the inhibition worked out at 0% in the experiment filed under Rattus norvegicus; 0% with Escherichia coli; 0% in the experiment on Penicillium decumbens; 30% in the experiment listed under Bos taurus [8]; 10.7% in the experiment filed under Bos taurus [9]; 0% in [10]. Besides, in the experiment filed under Sus scrofa, the inhibition is 12.9%. Further, the pIC50 in experiment [2] is 5.01; in [3] it was 5.77; in experiment [6] it was 3.11; in [7] it was 3.12.

With `C[C@]1(CO)NC[C@@H](O)[C@@H]1O`, the inhibition with Prunus dulcis is 6.8%; in experiment [1] it was 10.9%; in the experiment on Aspergillus niger, 4.7%; with Saccharomyces cerevisiae it was 12.4%; in experiment [4], 0.6%; in the experiment with Helix pomatia it was 0%. The inhibition in the experiment listed under Bos taurus [5] was 37.6%; in the experiment on Escherichia coli it was 4.8%; in the experiment with Penicillium decumbens it was 10.1%; in the experiment filed under Bos taurus [8], 35.7%; in the experiment filed under Bos taurus [9], 4.3%; in experiment [10], 3.8%. Besides, in the experiment listed under Sus scrofa, the inhibition is 3.9%. Further, the pIC50 in [3] is 5.66; in [6], 4.80.

For `OC[C@@]1(c2cccc(F)c2)NC[C@@H](O)[C@@H]1O`, the inhibition stood at 0.9% with Prunus dulcis; 0% in experiment [1]; 8.3% in the experiment on Aspergillus niger; 41.8% with Saccharomyces cerevisiae; 0% in experiment [4]; 0% in the experiment with Helix pomatia. The inhibition worked out at 21.7% in the experiment filed under Bos taurus [5]; 10.3% in experiment [11]; 0% in the experiment listed under Rattus norvegicus; 0% in the experiment on Escherichia coli; 0% in the experiment with Penicillium decumbens; 16.7% in the experiment listed under Bos taurus [8]. In addition, the inhibition was determined as 26.2% in the experiment filed under Bos taurus [9], 1.4% in the experiment on Oryza sativa, 0% in experiment [10] and 3.8% in the experiment filed under Sus scrofa. Moreover, in experiment [3], the negative logarithm of the IC50 (pIC50) is 5.19.

Take `COc1ccc([C@]2(CO)NC[C@@H](O)[C@@H]2O)cc1`: the inhibition with Prunus dulcis is 2.7%; in experiment [1], 2.7%; with Aspergillus niger, 0%; with Saccharomyces cerevisiae it was 22%; in [4], 7.5%; with Helix pomatia, 0%. Further, the inhibition in the experiment filed under Bos taurus [5] was 41%; in experiment [11], 40.2%; with Escherichia coli it was 25%; with Penicillium decumbens, 0%; in the experiment listed under Bos taurus [8] it was 33.5%; in the experiment filed under Bos taurus [9], 5.9%. Moreover, the inhibition in the experiment on Oryza sativa worked out at 37.8%; in [10], 0.2%; in the experiment filed under Sus scrofa, 3%. The pIC50 in experiment [3] is 3.97.

As to `OC[C@]1(c2ccc(O)cc2)NC[C@H](O)[C@H]1O`, the inhibition worked out at 14.8% with Prunus dulcis; 0% in [1]; 11.5% in the experiment with Aspergillus niger; 3.6% in experiment [4]; 0% in the experiment on Helix pomatia; 40.3% in the experiment listed under Bos taurus [5]. For the same molecule, the inhibition is 1.2% in the experiment listed under Rattus norvegicus; 1.8% in the experiment on Escherichia coli; 4.5% in the experiment on Penicillium decumbens; 27.6% in the experiment filed under Bos taurus [8]; 12.6% in the experiment listed under Bos taurus [9]; 3.4% in experiment [10]. Further, the inhibition in the experiment listed under Sus scrofa was 12.9%. Besides, the pIC50 in experiment [2] is 4.92; in experiment [3] it was 6.74; in experiment [6] it was 3.42; in experiment [7] it was 3.55.

Take `OC[C@@]1(c2ccc(F)cc2)NC[C@@H](O)[C@@H]1O`: the inhibition in the experiment on Prunus dulcis came to 0.6%; in [1], 0%; in the experiment with Aspergillus niger, 0%; in [4] it was 0%; in the experiment with Helix pomatia it was 0.8%; in the experiment listed under Bos taurus [5], 8.6%. The inhibition in the experiment listed under Rattus norvegicus came out at 25.8%; with Escherichia coli, 1.5%; in the experiment with Penicillium decumbens, 0%; in the experiment filed under Bos taurus [8], 8.4%; in the experiment listed under Bos taurus [9], 16.8%; in [10], 6.6%. In the experiment listed under Sus scrofa, the inhibition was determined as 4.4%. Besides, the pIC50 was 4.15 in experiment [2], 6.70 in experiment [3], 3.15 in experiment [6] and 3.19 in experiment [7].

In the case of `Cc1ccc([C@@]2(CO)NC[C@H](O)[C@H]2O)cc1`, the inhibition in the experiment on Prunus dulcis worked out at 7.8%; in [1], 3.3%; with Aspergillus niger, 8.3%; in experiment [4] it was 0%; with Helix pomatia, 0%; in the experiment listed under Bos taurus [5] it was 22.6%. Further, the inhibition in [11] is 45.9%; in the experiment filed under Rattus norvegicus, 12.9%; in the experiment with Escherichia coli, 0%; in the experiment with Penicillium decumbens, 7.4%; in the experiment filed under Bos taurus [8], 16.7%; in the experiment filed under Bos taurus [9], 8.7%. The inhibition (in experiment [10]; in the experiment listed under Sus scrofa) was 0% each time. Also, the results for the pIC50 in experiment [2], in [3] and in experiment [7] were 4.24, 6.00 and 3.16, respectively.

Take `OC[C@@]1(c2ccc(O)cc2)NC[C@@H](O)[C@@H]1O`: the inhibition in the experiment on Prunus dulcis worked out at 8.7%; in experiment [1], 0%; in the experiment with Aspergillus niger it was 9.2%; in experiment [4], 1.2%; with Helix pomatia, 0%; in the experiment listed under Bos taurus [5], 20.4%. Moreover, the inhibition in the experiment filed under Rattus norvegicus worked out at 0%; in the experiment with Escherichia coli, 0.4%; in the experiment with Penicillium decumbens, 5.5%; in the experiment listed under Bos taurus [8], 10.8%; in the experiment filed under Bos taurus [9] it was 19.9%; in experiment [10] it was 2.2%. In addition, the inhibition in the experiment filed under Sus scrofa is 4.5%. The pIC50 was 4.19 in experiment [2], 6.13 in experiment [3], 3.43 in experiment [6] and 3.47 in [7].

The record behind these values is ChEMBL document CHEMBL5131499, “Design, synthesis and glycosidase inhibition of C-4 branched LAB and DAB derivatives” (Eur J Med Chem, 2022).
